What all share (format): cell-based
One experiment has as its target human TLR7 (Homo sapiens (Human), UniProt Q9NYK1). Briefly: TLR7 inhibition reporter assay (HEK-Blue, SEAP). The conditions noted are these: HEK-Blue cells overexpressing human TLR7, gardiquimod 7.5 μM stimulation. As to the method: (§1) TLR7/8/9 Inhibition Reporter Assays
(§2) HEK-Blue™-cells (Invivogen) overexpressing human TLR7, TLR8 or TLR9 receptors were used for screening inhibitors of these receptors using an inducible SEAP (secreted embryonic alkaline phosphatase) reporter gene under the control of the IFN-β minimal promoter fused to five NF-κc Band AP-1-binding sites. Briefly, cells are seeded into Greiner 384 well plates (15000 cells per well for TLR7, 20,000 for TLR8 and 25,000 for TLR9) and then treated with test compounds in DMSO to yield a final dose response concentration range of 0.05 nM-50 μM. After a 30 minute compound pre-treatment at room temperature, the cells are then stimulated with a TLR7 ligand (gardiquimod at a final concentration of 7.5 μM), TLR8 ligand (R848 at a final concentration of 15.9 μM) or TLR9 ligand (ODN2006 at final concentration of 5 nM) to activate NF-κB and AP-1 which induce the production of SEAP. After a 22 hour incubation at 37° C., 5% CO2, SEAP levels are determined with the addition of HEK-Bue™ Detection reagent (Invivogen), a cell culture medium that allows for detection of SEAP, according to manufacturer's specifications. The percent inhibition is determined as the % reduction in the HEK-Blue signal present in wells treated with agonist plus DMSO alone compared to wells treated with a known inhibitor.
In general terms: In a reporter assay the amount or activity of a reporter protein is the signal.

For another experiment, the target named is human TLR8 (Homo sapiens (Human), UniProt Q9NR97). Briefly: TLR8 inhibition reporter assay (HEK-Blue, SEAP). Conditions: HEK-Blue cells overexpressing human TLR8, R848 15.9 μM stimulation. How it is done: as §1, §2
Sequence of human TLR8 (Q9NR97 27-1041): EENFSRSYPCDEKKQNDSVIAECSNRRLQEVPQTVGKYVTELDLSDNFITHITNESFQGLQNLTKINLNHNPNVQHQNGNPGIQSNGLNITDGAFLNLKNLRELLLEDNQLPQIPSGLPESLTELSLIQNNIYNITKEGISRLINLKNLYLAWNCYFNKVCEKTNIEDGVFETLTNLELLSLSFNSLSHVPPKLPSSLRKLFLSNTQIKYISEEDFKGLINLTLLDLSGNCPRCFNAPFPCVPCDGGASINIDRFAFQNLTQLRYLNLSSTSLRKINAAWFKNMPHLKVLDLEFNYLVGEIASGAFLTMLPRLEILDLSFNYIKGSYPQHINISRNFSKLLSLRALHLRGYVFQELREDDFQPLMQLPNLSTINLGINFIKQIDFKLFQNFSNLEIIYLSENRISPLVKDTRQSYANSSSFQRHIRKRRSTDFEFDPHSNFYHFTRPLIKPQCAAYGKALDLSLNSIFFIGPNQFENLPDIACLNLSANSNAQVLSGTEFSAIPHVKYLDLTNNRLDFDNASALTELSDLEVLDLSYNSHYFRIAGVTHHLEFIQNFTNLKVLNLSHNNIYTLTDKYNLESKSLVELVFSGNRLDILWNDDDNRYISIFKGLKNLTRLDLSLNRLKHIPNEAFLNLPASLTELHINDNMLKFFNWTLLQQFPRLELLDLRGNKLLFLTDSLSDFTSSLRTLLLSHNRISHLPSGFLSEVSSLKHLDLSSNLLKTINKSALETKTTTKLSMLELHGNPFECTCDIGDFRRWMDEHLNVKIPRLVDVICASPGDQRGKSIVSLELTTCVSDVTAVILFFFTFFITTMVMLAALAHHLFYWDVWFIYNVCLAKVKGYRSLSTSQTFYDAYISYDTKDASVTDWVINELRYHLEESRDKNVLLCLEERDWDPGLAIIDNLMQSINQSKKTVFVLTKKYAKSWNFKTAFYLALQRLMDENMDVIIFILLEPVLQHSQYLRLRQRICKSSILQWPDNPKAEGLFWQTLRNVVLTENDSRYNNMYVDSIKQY
The target of another experiment is human TLR9 (Homo sapiens (Human), UniProt Q9NR96). Briefly: TLR9 inhibition reporter assay (HEK-Blue, SEAP). The conditions noted are these: HEK-Blue cells overexpressing human TLR9, ODN2006 5 nM stimulation. As to the method:
as §1, §2

Where only a bound is given, the exact number is not on record here.

Usually IC50 stands for the concentration that inhibits the measured activity by half. Read a high IC50 as lower potency.

Sequence of human TLR9 (Q9NR96 26-1032): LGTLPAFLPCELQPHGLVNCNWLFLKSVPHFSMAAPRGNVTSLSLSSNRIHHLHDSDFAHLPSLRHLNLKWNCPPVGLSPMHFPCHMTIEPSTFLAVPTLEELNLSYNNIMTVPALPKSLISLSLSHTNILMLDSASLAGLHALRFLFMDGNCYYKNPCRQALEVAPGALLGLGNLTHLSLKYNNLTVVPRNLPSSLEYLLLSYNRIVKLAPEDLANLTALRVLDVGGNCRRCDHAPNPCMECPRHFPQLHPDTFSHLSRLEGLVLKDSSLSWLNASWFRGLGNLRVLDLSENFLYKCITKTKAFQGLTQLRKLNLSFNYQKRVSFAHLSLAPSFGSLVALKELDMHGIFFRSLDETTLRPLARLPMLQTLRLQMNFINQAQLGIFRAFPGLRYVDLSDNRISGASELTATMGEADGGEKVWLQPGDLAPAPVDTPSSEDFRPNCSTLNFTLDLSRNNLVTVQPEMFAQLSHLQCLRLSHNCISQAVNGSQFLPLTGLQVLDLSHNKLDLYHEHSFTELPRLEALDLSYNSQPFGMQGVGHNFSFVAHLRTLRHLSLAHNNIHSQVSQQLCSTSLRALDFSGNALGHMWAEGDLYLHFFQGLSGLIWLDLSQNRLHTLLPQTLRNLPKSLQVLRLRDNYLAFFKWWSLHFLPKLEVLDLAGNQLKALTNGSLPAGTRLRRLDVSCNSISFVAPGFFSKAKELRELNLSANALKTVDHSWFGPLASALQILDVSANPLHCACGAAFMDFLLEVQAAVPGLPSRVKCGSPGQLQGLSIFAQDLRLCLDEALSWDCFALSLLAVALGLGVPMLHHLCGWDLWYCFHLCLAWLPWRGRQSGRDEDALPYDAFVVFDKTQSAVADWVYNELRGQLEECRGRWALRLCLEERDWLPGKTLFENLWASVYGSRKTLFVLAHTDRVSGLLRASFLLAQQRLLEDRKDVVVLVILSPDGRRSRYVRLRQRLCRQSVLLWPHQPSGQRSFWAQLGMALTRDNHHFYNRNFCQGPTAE
Sequence of human TLR7 (Q9NYK1 27-1049): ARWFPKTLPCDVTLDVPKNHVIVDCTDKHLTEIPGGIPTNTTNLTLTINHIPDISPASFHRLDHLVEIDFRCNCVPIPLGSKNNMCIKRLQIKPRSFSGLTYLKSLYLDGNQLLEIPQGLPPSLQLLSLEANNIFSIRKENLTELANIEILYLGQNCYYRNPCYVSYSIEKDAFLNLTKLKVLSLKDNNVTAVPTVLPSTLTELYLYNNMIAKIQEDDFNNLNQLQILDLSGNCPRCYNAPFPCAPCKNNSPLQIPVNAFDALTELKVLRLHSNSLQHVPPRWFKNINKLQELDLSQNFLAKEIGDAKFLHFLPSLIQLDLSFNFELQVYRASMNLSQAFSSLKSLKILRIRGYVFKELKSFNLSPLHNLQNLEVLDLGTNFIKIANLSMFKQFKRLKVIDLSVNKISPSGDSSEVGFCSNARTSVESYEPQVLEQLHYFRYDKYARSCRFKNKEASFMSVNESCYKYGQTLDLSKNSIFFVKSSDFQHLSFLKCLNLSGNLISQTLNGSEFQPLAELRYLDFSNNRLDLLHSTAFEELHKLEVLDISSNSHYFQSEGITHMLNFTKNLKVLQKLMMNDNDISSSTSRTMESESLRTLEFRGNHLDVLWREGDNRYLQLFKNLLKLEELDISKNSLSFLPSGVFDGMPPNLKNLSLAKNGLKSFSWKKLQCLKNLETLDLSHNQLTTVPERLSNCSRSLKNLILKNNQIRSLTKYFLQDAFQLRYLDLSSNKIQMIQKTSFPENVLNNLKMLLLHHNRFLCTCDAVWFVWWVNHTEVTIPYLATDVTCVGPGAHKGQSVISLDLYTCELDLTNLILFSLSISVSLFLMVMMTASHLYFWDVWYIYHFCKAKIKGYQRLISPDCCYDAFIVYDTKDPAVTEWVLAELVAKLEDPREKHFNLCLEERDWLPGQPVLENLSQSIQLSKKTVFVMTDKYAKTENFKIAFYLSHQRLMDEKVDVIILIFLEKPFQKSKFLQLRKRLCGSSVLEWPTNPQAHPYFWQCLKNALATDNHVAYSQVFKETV

Regarding `COc1ccc(-c2[nH]c3ccc(-c4cccc(C(=O)N5CCNCC5)c4)cc3c2C(C)C)cc1OC` [Example 1, 2-(3,4-dimethoxyphenyl)-5-[3-(piperazine-1-carbonyl)phenyl]-3-(propan-2-yl)-1H-indole], the IC50 was found to be 107 nM at human TLR7, 9 nM on human TLR8 and 2060 nM against human TLR9.

With `COc1ccc(-c2[nH]c3ccc(-c4nnc(C5CCN(C(=O)CN(C)C)CC5)o4)cc3c2C(C)C)cc1OC` [Example 3, 1-(4-{5-[2-(3,4-dimethoxyphenyl)-3-(propan-2-yl)-1H-indol-5-yl]-1,3,4-oxadiazol-2-yl}piperidin-1-yl)-2-(dimethylamino)ethan-1-one], the IC50 against human TLR7 amounted to 28 nM; against human TLR8 it was 13 nM; against human TLR9, 1230 nM.

As for `COc1ccc(-c2[nH]c3ccc(-c4nnc(C5CCN(C(C)C)CC5)o4)cc3c2C(C)C)cc1OC` [Example 4, 2-(3,4-dimethoxyphenyl)-3-(propan-2-yl)-5-{5-[1-(propan-2-yl)piperidin-4-yl]-1,3,4-oxadiazol-2-yl}-1H-indole], the IC50 was 78 nM at human TLR7, 9 nM against human TLR8 and 979 nM against human TLR9.

As for `COc1ccc(-c2[nH]c3ccc(-c4cccc(C(=O)N5CCCN(C)CC5)c4)cc3c2C(C)C)cc1OC` [Example 5, (3-(2-(3,4-dimethoxyphenyl)-3-isopropyl-1H-indol-5-yl)phenyl)(4-methyl-1,4-diazepan-1-yl)methanone], the figures for the half-inhibitory concentration (IC50) against human TLR7, on human TLR8 and on human TLR9 were 121 nM, 6.8 nM and 3290 nM, respectively.

Consider `COc1ccc(-c2[nH]c3ccc(-c4cccc(C(=O)N[C@H]5CC[C@H](N)CC5)c4)cc3c2C(C)C)cc1OC` [Example 6], for which the IC50 worked out at 121 nM on human TLR7, 42 nM on human TLR8 and 2780 nM against human TLR9.

Regarding `COc1ccc(-c2[nH]c3ccc(-c4cccc(C(=O)N[C@H]5CC[C@H](C(C)(C)O)CC5)c4)cc3c2C(C)C)cc1OC` [Example 7, 3-(2-(3,4-dimethoxyphenyl)-3-isopropyl-1H-indol-5-yl)-N-((1r,4r)-4-(2-hydroxypropan-2-yl)cyclohexyl)benzamide], the results for the half-maximal inhibitory concentration (IC50) at human TLR7, against human TLR8 and at human TLR9 were 1790 nM, 19 nM and > 50000 nM, respectively.

With `COc1ccc(-c2[nH]c3ccc(-c4cccc(C(=O)NC5CCN(C(C)C)CC5)c4)cc3c2C(C)C)cc1OC` [Example 8, 3-(2-(3,4-dimethoxyphenyl)-3-isopropyl-1H-indol-5-yl)-N-(1-isopropylpiperidin-4-yl)benzamide], the IC50 on human TLR7 came out at 114 nM; against human TLR8, 29 nM; at human TLR9 it was 1810 nM.

In the case of `COc1ccc(-c2[nH]c3ccc(-c4cccc(C(=O)N5CCN(C(=O)C6CCCO6)CC5)c4)cc3c2CC(F)(F)F)cc1OC` (stereo not drawn) [Example 33, (4-(3-(2-(3,4-dimethoxyphenyl)-3-(2,2,2-trifluoroethyl)-1H-indol-5-yl)benzoyl)piperazin-1-yl)(tetrahydrofuran-2-yl)methanone], the IC50 against human TLR7 worked out at 1330 nM; on human TLR8, 53 nM.

As for `CC(C)c1c(-c2ccc3nccn3c2)[nH]c2ccc(-c3nnc([C@@H]4CCCNC4)o3)cc12` [Example 244, (R)-2-(2-(imidazo[1,2-a]pyridin-6-yl)-3-isopropyl-1H-indol-5-yl)-5-(piperidin-3-yl)-1,3,4-oxadiazole], the IC50 against human TLR7 worked out at 153 nM; against human TLR8, 422 nM.

`Cc1cc(-c2[nH]c3ccc(-c4nc(C(=O)NC5CCN(C(C)C)CC5)co4)cc3c2C(C)C)cc(C)n1` [Example 249, 2-(2-(2,6-dimethylpyridin-4-yl)-3-isopropyl-1H-indol-5-yl)-N-(1-isopropylpiperidin-4-yl)oxazole-4-carboxamide]: the IC50 against human TLR7 is 27 nM; against human TLR8, 7.5 nM.

Turning to `Cc1cc(-c2[nH]c3ccc(-c4ccc(N5CCN(C(C)C)CC5)nc4)cc3c2C(C)C)ccn1` [Example 302, 3-isopropyl-5-(6-(4-isopropylpiperazin-1-yl)pyridin-3-yl)-2-(2-methylpyridin-4-yl)-1H-indole], the IC50 turned out to be 28 nM at human TLR8 and 2320 nM on human TLR9.

`Cc1cc(-c2[nH]c3ccc(-c4nc5c(s4)CCNC5)cc3c2C(C)C)cc(C)n1` [Example 310, 2-(2-(2,6-dimethylpyridin-4-yl)-3-isopropyl-1H-indol-5-yl)-4,5,6,7-tetrahydrothiazolo[4,5-c]pyridine]: the IC50 on human TLR7 is 3.4 nM; at human TLR9 it was 647 nM.

As to `Cc1cc(-c2[nH]c3ccc(-c4ccc(NC(=O)C5CC(=O)N(C)C5)nc4)cc3c2C(C)C)ccn1` (stereo not drawn) [Example 332, N-(5-(3-isopropyl-2-(2-methylpyridin-4-yl)-1H-indol-5-yl)pyridin-2-yl)-1-methyl-5-oxopyrrolidine-3-carboxamide], the IC50 was 14 nM on human TLR7 and 1.9 nM against human TLR8.

In the case of `CCc1c(-c2ccc(OC)c(OC)c2)[nH]c2ccc(-c3cccc(CN4CCN(C)CC4)c3)cc12` [Example 368, 2-(3,4-dimethoxyphenyl)-3-ethyl-5-(3-((4-methylpiperazin-1-yl)methyl)phenyl)-1H-indole], the figures for the IC50 on human TLR7 and against human TLR8 were 2530 nM and 230 nM, respectively.

With `CC(C)c1c(-c2ccnc3[nH]ncc23)[nH]c2ccc(-c3ccc(C(C)N4CCOCC4)cc3)cc12` (stereo not drawn) [Example 372, 4-(1-(4-(3-isopropyl-2-(1H-pyrazolo[3,4-b]pyridin-4-yl)-1H-indol-5-yl)phenyl)ethyl)morpholine], the values for the IC50 on human TLR7 and against human TLR8 were 250 nM and 13 nM, respectively.

`COc1ccc(-c2[nH]c3ccc(-c4ccc(N5CCN(CC(C)C)CC5)nc4)cc3c2C(C)C)cc1OC` [Example 391, 2-(3,4-dimethoxyphenyl)-5-(6-(4-isobutylpiperazin-1-yl)pyridin-3-yl)-3-isopropyl-1H-indole]: the concentration for half-maximal inhibition (IC50) was found to be 73 nM at human TLR8 and 4360 nM on human TLR9.

For `COc1ccc(-c2[nH]c3ccc(-c4ccc(-c5cncc6ccccc56)cc4)cc3c2C(C)C)cc1OC` [Example 407, 4-(4-(2-(3,4-dimethoxyphenyl)-3-isopropyl-1H-indol-5-yl)phenyl)isoquinoline], the concentration for half-maximal inhibition (IC50) against human TLR8 was > 50000 nM; on human TLR9, 290 nM.

Turning to `COc1ccc(-c2ccc3[nH]c(-c4ccnc5[nH]ncc45)c(C(C)C)c3c2)cn1` [Example 422, 4-(3-isopropyl-5-(6-methoxypyridin-3-yl)-1H-indol-2-yl)-1H-pyrazolo[3,4-b]pyridine], the IC50 against human TLR7 was found to be 4100 nM; at human TLR8 it was 662 nM.

As for `COc1ccc(-c2[nH]c3ccc(-c4ccnc(N5CCN(Cc6ccsc6)CC5)c4)cc3c2C(C)C)cc1OC` [Example 423, 2-(3,4-dimethoxyphenyl)-3-isopropyl-5-(2-(4-(thiophen-3-ylmethyl)piperazin-1-yl)pyridin-4-yl)-1H-indole], the figures for the IC50 against human TLR7 and at human TLR9 were 1400 nM and 8760 nM, respectively.

`COc1ccc(-c2[nH]c3ccc(-c4ccnc(N5CCN(CCC(F)(F)F)CC5)c4)cc3c2C(C)C)cc1OC` [Example 424, 2-(3,4-dimethoxyphenyl)-3-isopropyl-5-(2-(4-(3,3,3-trifluoropropyl)piperazin-1-yl)pyridin-4-yl)-1H-indole]: the IC50 is 2590 nM against human TLR7 and > 50000 nM at human TLR9.

As for `COc1ccc(-c2[nH]c3ccc(-c4ccnc(N5CCN(CCC(C)O)CC5)c4)cc3c2C(C)C)cc1OC` (stereo not drawn) [Example 425, 4-(4-(4-(2-(3,4-dimethoxyphenyl)-3-isopropyl-1H-indol-5-yl)pyridin-2-yl)piperazin-1-yl)butan-2-ol], the IC50 against human TLR7 came out at 1490 nM; against human TLR9, 7070 nM.

For the molecule `COc1ccc(-c2[nH]c3ccc(-c4cnc(N5CCN(Cc6ccsc6)CC5)nc4)cc3c2C(C)C)cc1OC` [Example 429, 2-(3,4-dimethoxyphenyl)-3-isopropyl-5-(2-(4-(thiophen-3-ylmethyl)piperazin-1-yl)pyrimidin-5-yl)-1H-indole], the half-maximal inhibitory concentration (IC50) is 1280 nM against human TLR7 and > 50000 nM against human TLR9.

As to `COc1ccc(-c2[nH]c3ccc(-c4cnc(N5CCN(Cc6cccn6C)CC5)nc4)cc3c2C(C)C)cc1OC` [Example 430, 2-(3,4-dimethoxyphenyl)-3-isopropyl-5-(2-(4-((1-methyl-1H-pyrrol-2-yl)methyl)piperazin-1-yl)pyrimidin-5-yl)-1H-indole], the IC50 on human TLR7 was 1340 nM; against human TLR9, 11900 nM.

`COc1ccc(-c2[nH]c3ccc(-c4cnc(N5CCN(CC(C)C)CC5)n4C)cc3c2C(C)C)cc1OC` [Example 433, 2-(3,4-dimethoxyphenyl)-5-(2-(4-isobutylpiperazin-1-yl)-1-methyl-1H-imidazol-5-yl)-3-isopropyl-1H-indole]: the IC50 on human TLR7 worked out at 145 nM; on human TLR9, 2110 nM.

On to `COc1ccc(-c2[nH]c3ccc(-c4cnc(Cl)n4C)cc3c2C(C)C)cc1OC` [Example 437, 5-(2-chloro-1-methyl-1H-imidazol-5-yl)-2-(3,4-dimethoxyphenyl)-3-isopropyl-1H-indole], for which the IC50 against human TLR7 was found to be 896 nM; on human TLR9, 42100 nM.

The values are drawn from patent US11420958B2, “Aryl and heteroaryl substituted indole compounds” (BRISTOL-MYERS SQUIBB COMPANY, priority 2017, dated 2022).
